Here are results for 3 molecules from patent publication US12714688B2, “Margaric acid decreases PIEZ02-mediated pain” (The United States of America, as represented by The …, priority 2020, dated 2026).

The test system of experiment [1] is mechano-currents from DRG neurons. The note with it: cited from earlier work.
In experiment [2] the test system is PIEZO2-PIEZO1 beam chimera. Nature of the experiment: Whole-cell patch-clamp of N2A^Piezo1−/− cells transfected with Piezo2-Piezo1 beam chimera. The following applies: MA 100 μM 18 h; latrunculin A 1 μM for 1 h. In general terms: Patch clamp records ionic current or voltage across a cell membrane.
Method: (§1) Cell culture and electrophysiology: Piezo1 knock-out mouse N2A (N2A^Piezo1−/−) cells were a gift from Dr. Gary R. Lewin, human Merkel cell carcinoma cell line (MCC13 cells; Cell Bank Australia reference number: CBA1338) were obtained from Sigma, and DRG neurons were obtained from sacrificed mice. N2A^Piezo1−/− cells were cultured in Dulbecco's Modified Eagle Medium (DMEM), 5% penicillin streptomycin and 10% fetal bovine serum (FBS); MCC13 cells were cultured in RPMI 1640 (with 2 mM L-glutamine+25 mM HEPES; Sigma), 5% penicillin-streptomycin and 10% FBS and; DRG neurons were cultured in DMEM, 1% penicillin-streptomycin, 1% MEM vitamin solution, 1% L-glutamine, and 10% horse serum. Prior to electrophysiological measurements, N2A^Piezo1−/−, MCC13 and DRG neurons were supplemented overnight (≈18 h) with MA. […] MA was obtained from Nu-Chek Prep, INC. The cultured cells were maintained at 37° C., 95% relative humidity, and 5% CO2.
For whole-cell recordings, the bath solution contained 140 mM NaCl, 6 mM KCl, 2 mM CaCl2), 1 mM MgCl2, 10 mM glucose, and 10 mM HEPES (pH 7.4; 300 mOsm). The pipette solution for voltage-clamp recordings contained: 140 mM CsCl, 5 mM EGTA, 1 mM CaCl2), 1 mM MgCl2, and 10 mM HEPES (pH 7.2); and for current clamp recordings: 140 mM KCl, 6 mM NaCl, 2 mM CaCl2), 1 mM MgCl2, 10 mM glucose, and 10 mM HEPES (pH 7.4; 300 mOsm); MA and bradykinin acetate salt (Sigma) perfused during experiments were dissolved in the bath solution to a final concentration of 300 μM for 2 min, and 1 μM for 5 min respectively; and for long exposure experiments bradykinin was supplemented to the culture medium and added to the cells 18-24 h prior recording. For cytoskeleton disruption experiments, N2A^Piezo1−/− were incubated in media supplemented with 1 μM latrunculin A (Cayman Chemicals) for 1 h prior recordings. […]
During mechanical stimulation, currents were recorded at a constant voltage (−60 mV, voltage-clamp), and voltages were recorded without injecting current (current-clamp). […]
The test system of another experiment is mouse PIEZO2. Nature of the experiment: Whole-cell patch-clamp with mechanical indentation of N2A^Piezo1−/− cells transfected with Piezo2 variant 2 (V2). The following applies: latrunculin A 1 μM for 1 h.
In a further experiment the test system is mice. Nature of the experiment: Von Frey test after acute inflammation by topical AITC. The format is in vivo, mouse. The following applies: topical AITC; saline injected mice; filaments <0.16 g. On the procedure: Mice behavior: MA solution: MA was prepared in sterile Dulbecco's phosphate buffered saline, with 70 g/L fatty acid free bovine serum albumin (BSA; Sigma), and MA to a final concentration of 5 mM. The solution was filtered to avoid undissolved materials.
Subjects: For the experiment 8-12 weeks old male and female C57B16/J mice (N=12; control n=6; male=3, female=3) MA (n=6; male=3, female=3) per experiment were used. Mice were housed under a 12 hr light dark cycle and granted access to food and water ad libitum.
Treatment: Animals were put in two groups (control and MA) and given injections in the plantar of the left hind paw for 7 days prior behavioral assessment. Injections were given as follows: Mouse is restrained by their tail, foot, and over shoulders scruff. […]
Mechanical threshold (Von Frey test): Punctate mechanical allodynia was measured using Von Frey monofilaments (Stoelting, Inc.) in varying grams of force (0.008-1 g). Animals were placed in small enclosures over a wire mesh and the plantar of the hind paw was poked with a filament and responses were recorded. Withdrawal responses were recorded when the animal lifted, shook, or licked the paw in response to stimulus presentation. […]

Method for mouse PIEZO2: as §1
For whole-cell recordings, the bath solution contained 140 mM NaCl, 6 mM KCl, 2 mM CaCl2), 1 mM MgCl2, 10 mM glucose, and 10 mM HEPES (pH 7.4; 300 mOsm). The pipette solution for voltage-clamp recordings contained: 140 mM CsCl, 5 mM EGTA, 1 mM CaCl2), 1 mM MgCl2, and 10 mM HEPES (pH 7.2); and for current clamp recordings: 140 mM KCl, 6 mM NaCl, 2 mM CaCl2), 1 mM MgCl2, 10 mM glucose, and 10 mM HEPES (pH 7.4; 300 mOsm); MA and bradykinin acetate salt (Sigma) perfused during experiments were dissolved in the bath solution to a final concentration of 300 μM for 2 min, and 1 μM for 5 min respectively; and for long exposure experiments bradykinin was supplemented to the culture medium and added to the cells 18-24 h prior recording. For cytoskeleton disruption experiments, N2A^Piezo1−/− were incubated in media supplemented with 1 μM latrunculin A (Cayman Chemicals) for 1 h prior recordings. Pipettes were made out of borosilicate glass (Sutter Instruments) and were fire-polished before use until a resistance between 3 and 5 MΩ was reached.
During mechanical stimulation, currents were recorded at a constant voltage (−60 mV, voltage-clamp), and voltages were recorded without injecting current (current-clamp). Both variables were sampled at 100 kHz and low-pass filtered at 10 kHz using a MultiClamp™ 700 B amplifier and Clampex (Molecular Devices, LLC). […] Leak currents before mechanical stimulations were subtracted off-line from the current traces and data were digitally filtered at 2 kHz with ClampFit (Molecular Devices, LLC).
Mechanical stimulation: For indentation assays, N2A^Piezo1−/−, MCC13 DRG neurons, and human iPSC374 derived neurons were mechanically stimulated with a heat-polished blunt glass pipette (3-4 μm) driven by a piezo servo controller (E625, Physik Instrumente). The blunt pipette was mounted on a micromanipulator at an ~45° angle and positioned 3-4 μm above from the cells without indenting them. Displacement measurements were obtained with a square-pulse protocol consisting of 1 μm incremental indentation steps, each lasting 200 ms with a 2-ms ramp in 10-s intervals. The threshold of mechano-activated currents for each experiment was defined as the indentation step that evoked the first current deflection from the baseline.

On to GsMTx-4, for which the inhibition of mechano-currents result in experiment [1] is “failed to inhibit mechano-currents from DRG neurons”.

With `C/C1=C/C(=O)O[C@@H]2C[C@@H](CC[C@H](C)/C=C\C=C\CC1)O[C@@](O)([C@@H]1CSC(=O)N1)C2` [latrunculin A, reference compound], the “modulation of the MA effect on the chimera by latrunculin A” value in experiment [2] was “not modulated by latrunculin A treatment”. The figures for the “effect of latrunculin A on PIEZO2 inhibition by MA” value with mouse PIEZO2 and with mouse PIEZO2 (listed as Latrunculin A) were “enhances PIEZO2 inhibition by MA” and “pronounced leftward shift in the MA dose-response profile for PIEZO2”, respectively.

Consider `C=CCN=C=S` [AITC, Allyl isothiocyanate, reference compound], for which the “withdrawal from von Frey filaments caused by AITC” value with mice is given as “causes mice to withdraw their hind paws from even the lightest von Frey filaments”.
